Reference: patent US11746116B2, “Antibiotic resistance breakers” (KING'S COLLEGE LONDON, priority 2017, dated 2023)
Converted amounts (≈) assume the structure as drawn. “And” between values parts separate entries of the source, which are not always exact repeats. Equal entries are not always repeated. Where two headings read alike, the source gives them in different places.

Legend:
[1] = Single dose pharmacokinetics study, oral route; conditions: 20 mg/kg
[2] = tested on: Neisseria gonorrhoeae strains
[3] = male, CD-1 (ICR), mouse, in vivo, po

Structure (SMILES): C[C@H]1COc2c(N3CC[C@@H](Nc4ncccn4)C3)c(F)cc3c(=O)c(C(=O)O)cn1c23 [KSN-82-L22]
- Clast ([1]; PO, Male CD1 mouse, blood, Mean): 628 ng/mL
- AUC [1, 3]: 8230 ng·h/mL and 19.3 µM·h
- AUC(0-inf) [1, 3]: 31 µM·h
- Cmax [1, 3]: 4.01 µM and 2960 ng/mL
- Tmax [1, 3]: 1 h
- MIC ([2]; ATCC49226, strain ATCC 49226, PEN-I TET-I): < 0.0312 µg/mL
- MIC ([2]; ATCC700825, strain ATCC 700825): 50 µg/mL (≈ 118 µM)
- MIC ([2]; BAA1833, strain BAA-1833, PEN-I TET-I): 50 µg/mL (≈ 118 µM)
- MIC ([2]; BAA1838, strain BAA-1838): 50 µg/mL (≈ 118 µM)
- MIC ([2]; CCUG57595, strain CCUG 57595): 50 µg/mL (≈ 118 µM)
- MIC ([2]; CCUG57596): 0.125 µg/mL (≈ 0.294 µM)
- MIC ([2]; CCUG57597, strain CCUG 57597, FEP-NS FOX-I CAZ-NS CIP-R OFX-R PEN-R TET-R): 2 µg/mL (≈ 4.7 µM)
- MIC ([2]; CCUG57598, strain CCUG 57598, FOX-R CAZ-NS CRO-NS CIP-R OFX-R PEN-R TET-R): 2 µg/mL (≈ 4.7 µM)
- MIC ([2]; CCUG57599, strain CCUG 57599, CIP-R OFX-R PEN-R TET-R): 0 to 5 µg/mL
- MIC ([2]; CCUG57600, strain CCUG 57600, CIP-R OFX-R PEN-R TET-R): 1 µg/mL (≈ 2.35 µM)
- MIC ([2]; CCUG57601, strain CCUG 57601, PEN-R TET-R): < 0.0312 µg/mL
- MIC ([2]; CCUG57602, strain CCUG 57602, PEN-I TET-I): 0.0625 µg/mL (≈ 0.147 µM)
- MIC ([2]; NCTC13817, strain NCTC 13817, PEN-R TET-I): 0 to 5 µg/mL
- MIC ([2]; NCTC13818, strain NCTC 13818, CIP-R OFX-R PEN-R TET-R): 2 µg/mL (≈ 4.7 µM)
- MIC ([2]; NCTC13819, strain NCTC 13819, FEP-NS CAZ-NS CIP-R OFX-R PEN-R TET-I): 2 µg/mL (≈ 4.7 µM)
- MIC ([2]; NCTC13820, strain NCTC 13820, FEP-NS CFM-NS CAZ-NS CRO-NS CIP-R OFX-R PEN-R TET-R): 2 µg/mL (≈ 4.7 µM)
- MIC ([2]; NCTC13821, strain NCTC 13821, FEP-NS CFM-NS CAZ-NS CRO-NS CIP-R PEN-I TET-I): 2 µg/mL (≈ 4.7 µM)
- MIC ([2]; NCTC13822, strain NCTC 13822, FEP-NS CFM-NS CAZ-NS CIP-R OFX-R PEN-R TET-I): 2 µg/mL (≈ 4.7 µM)
- MIC ([2]; strain 2007NG046, PEN-R CFM-R CPD-R CIP-R): 4 µg/mL (≈ 9.4 µM)
- MIC ([2]; strain 2008NG057, PEN-R CFM-R CPD-R CIP-R): 2 µg/mL (≈ 4.7 µM)
- MIC ([2]; strain 2008NG097, PEN-R CFM-R CPD-R CIP-R): 2 µg/mL (≈ 4.7 µM)
- MIC ([2]; strain 2009NG514, PEN-R CPD-R CIP-R): 2 µg/mL (≈ 4.7 µM)
- MIC ([2]; strain 2010NG122, PEN-R CFM-R CIP-R): 2 µg/mL (≈ 4.7 µM)
- MIC ([2]; strain FDA-CDC AR-BANK#0165, CIP-R PEN-I TET-R): 2 µg/mL (≈ 4.7 µM)
- MIC ([2]; strain FDA-CDC AR-BANK#0166, CIP-R PEN-I TET-R): 2 µg/mL (≈ 4.7 µM)
- MIC ([2]; strain FDA-CDC AR-BANK#0167, CIP-S PEN-S TET-I): < 0.0312 µg/mL
- MIC ([2]; strain FDA-CDC AR-BANK#0168, CIP-R PEN-I TET-R): 1 µg/mL (≈ 2.35 µM)
- MIC ([2]; strain FDA-CDC AR-BANK#0169, CIP-R PEN-I TET-R): 2 µg/mL (≈ 4.7 µM)
- MIC ([2]; strain FDA-CDC AR-BANK#0170, CIP-R PEN-I TET-R): 2 µg/mL (≈ 4.7 µM)
- MIC ([2]; strain FDA-CDC AR-BANK#0171, CIP-R PEN-I TET-R): 1 µg/mL (≈ 2.35 µM)
- MIC ([2]; strain FDA-CDC AR-BANK#0172, CIP-R PEN-R TET-R): 1 µg/mL (≈ 2.35 µM)
- MIC ([2]; strain FDA-CDC AR-BANK#0173, CIP-R PEN-R TET-R): 2 µg/mL (≈ 4.7 µM)
- MIC ([2]; strain FDA-CDC AR-BANK#0174, CIP-R PEN-R TET-R): 2 µg/mL (≈ 4.7 µM)
- MIC ([2]; strain FDA-CDC AR-BANK#0175, CIP-S PEN-I TET-I): < 0.0312 µg/mL
- MIC ([2]; strain FDA-CDC AR-BANK#0176, CIP-R PEN-R TET-R): 2 µg/mL (≈ 4.7 µM)
- MIC ([2]; strain FDA-CDC AR-BANK#0177, CIP-S PEN-I TET-R): < 0.0312 µg/mL
- MIC ([2]; strain FDA-CDC AR-BANK#0178, CIP-R PEN-R TET-R): 2 µg/mL (≈ 4.7 µM)
- MIC ([2]; strain FDA-CDC AR-BANK#0179, CIP-S PEN-S TET-I): < 0.0312 µg/mL
- MIC ([2]; strain FDA-CDC AR-BANK#0180, CIP-R PEN-I TET-R): 2 µg/mL (≈ 4.7 µM)
- MIC ([2]; strain FDA-CDC AR-BANK#0181, CIP-S PEN-I TET-R): < 0.0312 µg/mL
- MIC ([2]; strain FDA-CDC AR-BANK#0182, CIP-R PEN-I TET-R): 2 µg/mL (≈ 4.7 µM)
- MIC ([2]; strain FDA-CDC AR-BANK#0183, CIP-R PEN-R TET-R): 2 µg/mL (≈ 4.7 µM)
- MIC ([2]; strain FDA-CDC AR-BANK#0184, CIP-R PEN-R TET-R): 2 µg/mL (≈ 4.7 µM)
- MIC ([2]; strain FDA-CDC AR-BANK#0185, CIP-R PEN-I TET-R): 2 µg/mL (≈ 4.7 µM)
- MIC ([2]; strain FDA-CDC AR-BANK#0186, CIP-R PEN-R TET-R): 1 µg/mL (≈ 2.35 µM)
- MIC ([2]; strain FDA-CDC AR-BANK#0187, CIP-R PEN-I TET-R): 2 µg/mL (≈ 4.7 µM)
- MIC ([2]; strain FDA-CDC AR-BANK#0188, CIP-R PEN-I TET-R): 1 µg/mL (≈ 2.35 µM)
- MIC ([2]; strain FDA-CDC AR-BANK#0189, CIP-R PEN-R TET-R): 2 µg/mL (≈ 4.7 µM)
- MIC ([2]; strain FDA-CDC AR-BANK#0190, CIP-R PEN-R TET-R): 2 µg/mL (≈ 4.7 µM)
- MIC ([2]; strain FDA-CDC AR-BANK#0191, CIP-R PEN-R TET-R): 2 µg/mL (≈ 4.7 µM)
- MIC ([2]; strain FDA-CDC AR-BANK#0192, CIP-R PEN-R TET-R): 2 µg/mL (≈ 4.7 µM)
- MIC ([2]; strain FDA-CDC AR-BANK#0193, CIP-S PEN-R TET-R): < 0.0312 µg/mL
- MIC ([2]; strain FDA-CDC AR-BANK#0194, CRO-NS CIP-S PEN-I TET-R): < 0.0312 µg/mL
- MIC ([2]; strain FDA-CDC AR-BANK#0195, CIP-R PEN-I TET-R): 2 µg/mL (≈ 4.7 µM)
- MIC ([2]; strain FDA-CDC AR-BANK#0196, CIP-R PEN-R TET-R): 2 µg/mL (≈ 4.7 µM)
- MIC ([2]; strain FDA-CDC AR-BANK#0197, CIP-R PEN-I TET-I): 2 µg/mL (≈ 4.7 µM)
- MIC ([2]; strain FDA-CDC AR-BANK#0198, CIP-R PEN-R TET-R): 2 µg/mL (≈ 4.7 µM)
- MIC ([2]; strain FDA-CDC AR-BANK#0199, CIP-S PEN-R TET-R): < 0.0312 µg/mL
- MIC ([2]; strain FDA-CDC AR-BANK#0200, CIP-R PEN-R TET-R): 2 µg/mL (≈ 4.7 µM)
- MIC ([2]; strain FDA-CDC AR-BANK#0201, CIP-R PEN-R TET-R): 2 µg/mL (≈ 4.7 µM)
- MIC ([2]; strain FDA-CDC AR-BANK#0202, CIP-S PEN-S TET-I): < 0.0312 µg/mL
- MIC ([2]; strain FDA-CDC AR-BANK#0203, CIP-R PEN-R TET-R): 2 µg/mL (≈ 4.7 µM)
- MIC ([2]; strain FDA-CDC AR-BANK#0204, CIP-R PEN-I TET-R): 2 µg/mL (≈ 4.7 µM)
- MIC ([2]; strain FDA-CDC AR-BANK#0205, CIP-R PEN-R TET-R): 2 µg/mL (≈ 4.7 µM)
- MIC ([2]; strain FDA-CDC AR-BANK#0206, CIP-R PEN-R TET-R): 2 µg/mL (≈ 4.7 µM)
- MIC ([2]; strain FDA-CDC AR-BANK#0207, CIP-R PEN-R TET-R): 2 µg/mL (≈ 4.7 µM)
- MIC ([2]; strain FDA-CDC AR-BANK#0208, CIP-R PEN-I TET-R): 2 µg/mL (≈ 4.7 µM)
- MIC ([2]; strain FDA-CDC AR-BANK#0209, CIP-R PEN-I TET-R): 2 µg/mL (≈ 4.7 µM)
- MIC ([2]; strain FDA-CDC AR-BANK#0210, CIP-R PEN-I TET-I): 2 µg/mL (≈ 4.7 µM)
- MIC ([2]; strain FDA-CDC AR-BANK#0211, CIP-R PEN-R TET-R): 2 µg/mL (≈ 4.7 µM)
- MIC ([2]; strain FDA-CDC AR-BANK#0212, CIP-R PEN-I TET-R): 2 µg/mL (≈ 4.7 µM)
- MIC ([2]; strain FDA-CDC AR-BANK#0213, CIP-R PEN-I TET-I): 1 µg/mL (≈ 2.35 µM)
- MIC ([2]; strain FDA-CDC AR-BANK#0214, CIP-R PEN-R TET-R): 2 µg/mL (≈ 4.7 µM)
- MIC ([2]; strain TCDC-NG08107, PEN-R CFM-R CPD-R CIP-R): 2 µg/mL (≈ 4.7 µM)
